Measurements as given in ChEMBL document CHEMBL4828768, “Talaromynoids A-I, Highly Oxygenated Meroterpenoids from the Marine-Derived Fungus Talaromyces purpureogenus SCSIO 41517 and Their Lipid Accumulation Inhibitory Activities” (J Nat Prod, 2021).
The source made the active and inactive calls. The calls are words filed in the database; no cut-off is given here.

Experiments:
[1] = molecular target: T1, M-phase inducer phosphatase 2 (Homo sapiens) (UniProt P30305); assay: Inhibition of human recombinant CDC25B expressed in Escherichia coli assessed as inhibition of phosphatase activity by measuring p-nitrophenyl phosphate at 6.7 microg/ml measured after 60 mins; conditions: dose 6.7 µg/ml
T1 sequence (whole entry): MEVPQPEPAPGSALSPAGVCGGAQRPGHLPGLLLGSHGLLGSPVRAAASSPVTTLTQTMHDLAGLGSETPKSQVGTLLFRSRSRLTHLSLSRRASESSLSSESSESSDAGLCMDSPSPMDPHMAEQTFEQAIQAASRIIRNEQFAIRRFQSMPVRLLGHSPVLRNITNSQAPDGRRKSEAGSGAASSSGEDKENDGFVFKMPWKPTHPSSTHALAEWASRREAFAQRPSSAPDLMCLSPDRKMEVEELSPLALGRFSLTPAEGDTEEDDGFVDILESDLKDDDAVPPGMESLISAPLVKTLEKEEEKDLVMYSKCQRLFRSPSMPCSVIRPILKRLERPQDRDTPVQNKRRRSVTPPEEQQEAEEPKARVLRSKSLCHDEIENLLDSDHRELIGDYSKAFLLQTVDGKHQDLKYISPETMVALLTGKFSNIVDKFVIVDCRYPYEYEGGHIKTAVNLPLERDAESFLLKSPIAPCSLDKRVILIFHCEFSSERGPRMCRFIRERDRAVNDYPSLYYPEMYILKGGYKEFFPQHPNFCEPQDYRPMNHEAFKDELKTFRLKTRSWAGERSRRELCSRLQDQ

[2] = molecular target: T2, Tyrosine-protein phosphatase non-receptor type 11 (Homo sapiens) (UniProt Q06124); assay: Inhibition of human recombinant SHP2 expressed in Escherichia coli assessed as inhibition of phosphatase activity by measuring p-nitrophenyl phosphate at 6.7 microg/ml measured after 60 mins; conditions: dose 6.7 µg/ml
T2 sequence (whole entry): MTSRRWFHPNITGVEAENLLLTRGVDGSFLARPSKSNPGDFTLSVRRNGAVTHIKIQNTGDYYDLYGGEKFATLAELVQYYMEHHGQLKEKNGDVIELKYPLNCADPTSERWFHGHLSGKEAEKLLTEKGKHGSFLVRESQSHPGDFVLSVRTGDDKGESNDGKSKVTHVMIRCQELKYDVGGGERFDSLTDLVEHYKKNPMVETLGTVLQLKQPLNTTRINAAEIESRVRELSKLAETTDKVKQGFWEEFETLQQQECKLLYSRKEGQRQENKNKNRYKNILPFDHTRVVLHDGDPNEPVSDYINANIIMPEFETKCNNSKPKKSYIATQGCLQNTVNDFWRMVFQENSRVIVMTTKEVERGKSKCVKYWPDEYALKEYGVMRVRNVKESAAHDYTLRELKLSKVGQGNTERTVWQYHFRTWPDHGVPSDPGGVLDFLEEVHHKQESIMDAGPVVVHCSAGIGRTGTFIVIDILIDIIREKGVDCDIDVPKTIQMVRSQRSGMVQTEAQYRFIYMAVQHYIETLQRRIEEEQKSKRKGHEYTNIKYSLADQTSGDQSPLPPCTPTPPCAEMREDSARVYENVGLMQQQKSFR

[3] = molecular target: T3, Receptor-type tyrosine-protein phosphatase C (Homo sapiens) (UniProt P08575); assay: Inhibition of human recombinant CD45 expressed in Escherichia coli assessed as inhibition of phosphatase activity by measuring p-nitrophenyl phosphate at 6.7 microg/ml measured after 60 mins; conditions: dose 6.7 µg/ml
T3 sequence (whole entry): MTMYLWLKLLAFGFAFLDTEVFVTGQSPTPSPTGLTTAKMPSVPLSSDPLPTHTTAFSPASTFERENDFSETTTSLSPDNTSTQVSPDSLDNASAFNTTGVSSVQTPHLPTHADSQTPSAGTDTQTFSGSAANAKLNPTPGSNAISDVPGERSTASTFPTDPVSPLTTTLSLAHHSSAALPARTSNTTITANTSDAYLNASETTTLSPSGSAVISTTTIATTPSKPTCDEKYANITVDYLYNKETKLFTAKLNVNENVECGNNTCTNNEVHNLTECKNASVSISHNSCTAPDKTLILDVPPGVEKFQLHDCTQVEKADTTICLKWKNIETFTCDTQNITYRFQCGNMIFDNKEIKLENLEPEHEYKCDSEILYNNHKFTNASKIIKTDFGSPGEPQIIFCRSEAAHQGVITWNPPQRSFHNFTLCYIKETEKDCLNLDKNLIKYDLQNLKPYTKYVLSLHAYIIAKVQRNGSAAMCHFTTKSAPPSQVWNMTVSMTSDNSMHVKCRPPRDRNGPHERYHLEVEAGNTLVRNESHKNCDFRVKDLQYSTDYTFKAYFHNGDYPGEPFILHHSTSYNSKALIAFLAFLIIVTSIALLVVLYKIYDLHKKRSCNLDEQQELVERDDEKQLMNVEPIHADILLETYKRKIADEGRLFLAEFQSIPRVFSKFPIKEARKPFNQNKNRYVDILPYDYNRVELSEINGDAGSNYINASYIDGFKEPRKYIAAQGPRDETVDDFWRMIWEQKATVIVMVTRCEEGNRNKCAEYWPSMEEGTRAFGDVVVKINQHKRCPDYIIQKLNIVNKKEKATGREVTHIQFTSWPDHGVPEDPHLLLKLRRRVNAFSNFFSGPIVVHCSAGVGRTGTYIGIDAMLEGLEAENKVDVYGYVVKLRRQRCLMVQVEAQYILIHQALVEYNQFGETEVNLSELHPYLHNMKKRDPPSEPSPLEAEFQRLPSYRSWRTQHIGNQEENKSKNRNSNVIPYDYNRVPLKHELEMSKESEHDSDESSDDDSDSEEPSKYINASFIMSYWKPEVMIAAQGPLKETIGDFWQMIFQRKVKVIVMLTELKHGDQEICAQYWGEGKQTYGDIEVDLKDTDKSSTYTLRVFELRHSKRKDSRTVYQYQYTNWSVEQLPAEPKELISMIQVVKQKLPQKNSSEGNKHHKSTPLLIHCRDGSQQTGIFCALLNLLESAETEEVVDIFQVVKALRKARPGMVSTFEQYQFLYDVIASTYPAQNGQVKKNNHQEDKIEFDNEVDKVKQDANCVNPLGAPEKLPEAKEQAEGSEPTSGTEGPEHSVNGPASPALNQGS

[4] = (§1) Reduction in intracellular triglyceride accumulation in mouse 3T3-L1 cells at 10 uM measured after 3 days; assay type: functional; set-up: scale not given: the % may be the effect or the level left; conditions: time 3 day
[5] = system: 3T3-L1; assay: as §1; assay type: functional; conditions: time 3.0 day
[6] = Reduction in intracellular triglyceride accumulation in mouse 3T3-L1 cells measured after 3 days; assay type: functional, cell-based; conditions: 3T3-L1, 72 h
[7] = molecular target: T4, M-phase inducer phosphatase 2 (Homo sapiens, UniProt P30305); assay: Inhibition of human recombinant CDC25B expressed in Escherichia coli assessed as inhibition of phosphatase activity by measuring p-nitrophenyl phosphate measured after 60 mins
T4 sequence (P30305 whole entry): T1 sequence (whole entry)

inhibition [1] | inhibition [2] | inhibition [3] | IC50 [6] | IC50 [7] | Compound | Activity [4] | Activity [5]
< 60% | < 60% | < 60% |  |  | COC(=O)[C@]12C(=O)[C@H](C)O[C@@H]3OC(=O)[C@](C)(C[C@H]4C(C)=C5CC(=O)OC(C)(C)C5=CC[C@@]41C)[C@@H]32 [BERKELEYACETAL A] | <60% | 
< 60% | < 60% | < 60% |  |  | COC(=O)CC1=C(C)[C@@H]2C[C@@]3(C)C(=O)O[C@H]4O[C@@H](C)[C@@]5(O)O[C@@H]([C@@H]6O[C@]16C(C)(C)O)[C@]2(C)[C@@]5(C(=O)OC)[C@H]43 |  | 
< 60% | < 60% | < 60% |  |  | COC(=O)[C@]12C3=C(C)O[C@@H]4OC(=O)[C@](C)(C[C@H]5C(C)=C6CC(=O)O[C@@]6(C(C)(C)O)[C@@H](C[C@@]51C)O3)[C@@H]42 |  | 
< 60% | < 60% | < 60% | 21 µM |  | COC(=O)[C@]12[C@@H]3[C@@H](O)O[C@@H](C)[C@@]14OC(=O)[C@]3(C)C[C@H]1C(C)=C3CC(=O)OC(C)(C)[C@@]35O[C@H]5[C@H](O4)[C@@]12C |  | Active
< 60% | < 60% | < 60% |  |  | COC(=O)[C@]12[C@@H]3[C@H]4OC(=O)[C@]3(C)C[C@H]3C(C)=C5CC(=O)OC(C)(C)[C@@]56O[C@H]6[C@H](O[C@]1(O)[C@H](C)O4)[C@@]32C |  | 
< 60% | < 60% | < 60% |  |  | COC(=O)CC1=C(C)[C@@H]2C[C@@]3(C)C(=O)O[C@H]4O[C@@H](C)[C@@]5(O)O[C@@H]([C@@H]6O[C@]16C(C)(C)O)[C@]2(C)[C@@]5(C(=O)OC)[C@]43O |  | 
Active | < 60% | < 60% |  | 13 µM | COC(=O)[C@@]12[C@@]3(C)[C@@H]4C=C5C(=CC(=O)OC5(C)C)[C@@](C)(O)[C@@H]3C[C@@]3(C)C(=O)O[C@@H](O[C@@H](C)[C@@]1(O)O4)[C@@]23O |  | 

Continued, molecule first:

Compound | inhibition [1] | inhibition [2] | inhibition [3] | IC50 [6] | IC50 [7] | Activity [4] | Activity [5]
COC(=O)[C@]12C3=C(C)O[C@@H]4OC(=O)[C@](C)(C[C@H]5C(C)=C6CC(=O)O[C@@]6(C(C)(C)O)[C@H](O3)[C@H](O)[C@@]51C)[C@@H]42 | < 60% | < 60% | < 60% |  |  |  | 
COC(=O)[C@]12C(=O)[C@@](C)(O)C(=O)[C@](C)(C[C@H]3C(C)=C4CC(=O)OC(C)(C)C4=CC[C@@]31C)[C@]21CO1 | < 60% | < 60% | < 60% | 43 µM |  |  | Active
COC(=O)[C@]12[C@@H]3[C@H]4OC(=O)[C@]3(C)CC3=C(C)C5=C(C[C@H](O[C@]1(O)[C@H](C)O4)[C@@]32C)C(C)(C)OC(=O)C5 | < 60% | < 60% | < 60% |  |  |  | 
CC1=C2CC(=O)OC(C)(C)[C@]23O[C@@H]3[C@@H]2O[C@@]3(O)[C@@H](C)O[C@H]4OC(=O)[C@]5(C)C[C@H]1[C@]2(C)[C@@]31C(=O)O[C@@]415 | < 60% | < 60% | < 60% | 37 µM |  |  | Active
COC(=O)CC1=C(C)[C@H]2C[C@]3(C)C(=O)O[C@@H]4O[C@H](C)[C@]5(O)O[C@@H]([C@H]6O[C@@]16C(C)(C)O)[C@@]2(C)[C@@]51C(=O)O[C@@]413 | < 60% | < 60% | < 60% | 29 µM |  |  | Active
CC1=C2CC(=O)OC(C)(C)C2=CC[C@@]2(C)[C@H]1C[C@@](C)(C(=O)O)[C@]13COC(=O)[C@@]12C(=O)[C@H](C)O3 | < 60% | < 60% | < 60% |  |  | <60% | 
